{"source": "patent US6617337B1", "about": "“Use of nitroxides for the treatment of essential hypertension” (Georgetown University, priority 1997, dated 2003)", "type_in_all_cases": "in vivo, rat", "key": {"[1]": {"system": "SHR", "assay": "TGF response to SNAP microperfused into the macula densa during Tempol microperfusion via the efferent arteriole", "source_text": "Two additional microperfusion studies were undertaken to assess the mechanism of Tempol action in SHR. […] A dose of 10^−6 M […] (SNAP), a NO donor compound, was microperfused into the macula densa of the rats. […] Other NO donor compounds include nitroprusside and nitrates."}, "[2]": {"system": "SHR and WKY rats", "assay": "Maximal TGF responses (proximal stop flow pressure) during orthograde loop of Henle microperfusion of 7-NI (Series 4)", "details": "for PSF difference 0-40 nl·min^−1 (maximal TGF response) / PSF during LH perfusion at 0 nl·min^−1 / PSF during LH perfusion at 40 nl·min^−1: ATF+7-NI 10^−4 M, mean ± SEM", "protocol": "(§1) Series 4. Effects of inhibition of bNOS on maximal TGF responses in SHR and WKY. These experiments further examined the SHR hypertension model and whether the enhanced TGF of the SHR kidney is due to a blunted generation of NO by bNOS in the macula densa or whether NOS inhibition is diminished in the SHR model. Groups of SHR and age-matched WKY rats were prepared for in vivo micropuncture, microperfusion, and TGF studies as described in detail previously. In brief, animals were anesthetized with thiobarbital (Inactin, 100 mg·kg^−1; Research Biochemicals, Inc., Natick, Mass.). A catheter was placed in a jugular vein for fluid infusion and in a femoral artery for recording of mean arterial pressure (MAP) from the electrically damped output of a pressure transducer (Statham, Inc.). A tracheotomy tube was inserted and the animals were allowed to breathe spontaneously. The left kidney was exposed by a flank incision, cleaned of connective tissue, and stabilized in a Lucite cup. This kidney was bathed in 0.154 M NaCl maintained at 37° C. After completion of surgery, rats were infused with a solution of 0.154 M NaCl and 1% albumin at 1.5 ml·h^−1 to maintain a euvolemic state. Micropuncture studies were begun after 60 min for stabilization.\n(§2) For orthograde microperfusion of the loop of Henle (LH), a micropipette (8 μm OD) containing artificial tubular fluid (ATF) stained with FD&C dye was inserted into a late proximal tubule. Injections of the colored ATF identified the nephron and the direction of flow. An immobile bone wax block was inserted into this micropuncture site via a micropipette (10-15 μm) and connected to a hydraulic drive (Trent Wells, Inc., LaJolla, Calif.) to halt tubular fluid flow. A perfusion micropipette (6-8 μm) containing ATF and test compounds or vehicle was inserted into the proximal tubule downstream from the wax block and connected to a nanoliter perfusion pump (WPI, Sarasota, Fla.). A pressure micropipette (1-2 μm) was inserted into the proximal tubule upstream from the wax block to measure proximal stop flow pressure (PSF). Changes in PSF are an index of changes in glomerular capillary hydraulic pressure (PGC). Measurements of PSF were made in each nephron during zero loop perfusion and during perfusion with ATF at 40 nl·min^−1, which produces a maximal TGF response, defined as the difference between PSF values recorded during perfusion of the loop with ATF at 0 and 40 nl·min^−1.\nThe maximal TGF responses were determined in SHR (n=4) and WKY rats (n=4) to perfusion of the LH with ATF+vehicle and contrasted with the maximal TGF responses during perfusion with ATF+7-nitroindazole (7-NI; 10^−4 M)."}, "[3]": {"system": "SHR rats", "assay": "TGF response to 7-NI microperfused into the macula densa before and during Tempol microperfusion into efferent arterioles", "source_text": "This also implies that it had normalized the action of NO in this setting, thereby correcting the defect in the NO action in hypertension and restoring normal vascular control. This is filly consistent with its action on a free radical scavenging agent that thereby protects NO from radical attack."}, "[4]": {"system": "SHR", "assay": "Role of NO in the MAP response to constant Tempol infusion (L-NAME or norepinephrine pretreatment)", "details": "for Change in MAP at 50 min (time control): separate group of SHR, NS"}, "[5]": {"system": "SHR and WKY rats", "assay": "Maximal TGF responses during orthograde microperfusion of L-arginine (Series 5)", "details": "for PSF difference 0-40 nl·min^−1 (maximal TGF response) / PSF during LH perfusion at 0 nl·min^−1 / PSF during LH perfusion at 40 nl·min^−1: ATF+L-arginine 10^−3 M, mean ± SEM", "protocol": "as §1, §2\nSeries 5: Maximal TGF responses during microperfusion of L-arginine in SHR and WKY. L-arginine had previously been shown not to lower blood pressure or the glomerular filtration rate in the SHR model. However, L-arginine can restore a TGF response to NOS blockade in tested rats adapted to low salt intake. Therefore, the role of L-arginine was tested in the SHR model. This series examined the effect of a reduced delivery of L-arginine to the macula densa on NO generation, as assessed in Series 4. Groups of SHR (n=4) and WKY rats (n=3) were prepared for microperfusion. PSF was recorded during orthograde LH perfusion at 0 and 40 nl·min^−1 with ATF+vehicle and ATF+L-arginine (10^−3 M). (Previous studies had shown that this was a maximally effective dose.)"}}, "data": [{"smiles": "CC(=O)N[C@H](C(=O)O)C(C)(C)SN=O", "note": "(racemic) [SNAP, 5-nitroacetylpenacillamine]", "values": [{"measurement": "Blunting of TGF response", "setting": "[1]; SNAP 10^−6 M during Tempol 10^−4 M microperfusion via efferent arteriole, p<0.01", "value": "more than 25%"}, {"measurement": "Effect of SNAP dose alone on TGF", "setting": "[1]; SNAP 10^−6 M into macula densa, without Tempol", "value": "just subthreshold"}]}, {"smiles": "O=[N+]([O-])c1cccc2cn[nH]c12", "note": "[7-NI, 7-nitroindazole]", "values": [{"measurement": "Effect on TGF responses", "setting": "[2]; SHR, 7-NI added to orthograde LH perfusate", "value": "no significant effects"}, {"measurement": "PSF difference 0-40 nl·min^−1 (maximal TGF response)", "setting": "[2]; SHR", "value": "12.5 ± 0.6", "unit": "mm Hg"}, {"measurement": "PSF during LH perfusion at 0 nl·min^−1", "setting": "[2]; SHR", "value": "41.0 ± 1.0", "unit": "mm Hg"}, {"measurement": "PSF during LH perfusion at 40 nl·min^−1", "setting": "[2]; SHR", "value": "29.3 ± 0.7", "unit": "mm Hg"}, {"measurement": "Average increase in maximal TGF response", "setting": "[2]; WKY, 7-NI added to orthograde LH perfusate", "value": 39, "unit": "%"}, {"measurement": "PSF difference 0-40 nl·min^−1 (maximal TGF response)", "setting": "[2]; WKY", "value": "13.2 ± 0.7", "unit": "mm Hg"}, {"measurement": "PSF during LH perfusion at 0 nl·min^−1", "setting": "[2]; WKY", "value": "38.1 ± 0.8", "unit": "mm Hg"}, {"measurement": "PSF during LH perfusion at 40 nl·min^−1", "setting": "[2]; WKY", "value": "25.0 ± 1.2", "unit": "mm Hg"}, {"measurement": "Increase in TGF in the presence of 7-NI", "setting": "[3]; 7-NI 10^−4 M during Tempol 10^−4 M microperfusion into efferent arterioles", "value": "greater than 25%"}, {"measurement": "TGF response to 7-NI before Tempol", "setting": "[3]; 7-NI 10^−4 M into macula densa, before Tempol", "value": "no significant TGF response"}]}, {"smiles": "COC(=O)[C@@H](N)CCCNC(=N)N[N+](=O)[O-]", "note": "[L-NAME]", "values": [{"measurement": "Increase in MAP", "setting": "[4]; SHR, twenty minutes of L-NAME infusion alone", "value": 18, "unit": "%"}, {"measurement": "MAP after L-NAME infusion alone", "setting": "[4]; SHR, twenty minutes of L-NAME infusion, from 158±11", "value": "187±8", "unit": "mm Hg"}, {"measurement": "Change in MAP at 50 min (time control)", "setting": "[4]; L-NAME infusion", "value": "0.3±3.3", "unit": "%"}]}, {"smiles": "N=C(N)NCCC[C@H](N)C(=O)O", "note": "[L-arginine]", "values": [{"measurement": "PSF difference 0-40 nl·min^−1 (maximal TGF response)", "setting": "[5]; SHR", "value": "10.6 ± 0.7", "unit": "mm Hg"}, {"measurement": "PSF during LH perfusion at 0 nl·min^−1", "setting": "[5]; SHR", "value": "41.0 ± 1.2", "unit": "mm Hg"}, {"measurement": "PSF during LH perfusion at 40 nl·min^−1", "setting": "[5]; SHR", "value": "30.4 ± 0.7", "unit": "mm Hg"}, {"measurement": "Effect on TGF responses", "setting": "[5]; SHR, L-arginine added to orthograde LH perfusate", "value": "no significant effects"}, {"measurement": "PSF difference 0-40 nl·min^−1 (maximal TGF response)", "setting": "[5]; WKY", "value": "6.3 ± 0.4", "unit": "mm Hg"}, {"measurement": "PSF during LH perfusion at 0 nl·min^−1", "setting": "[5]; WKY", "value": "36.1 ± 0.7", "unit": "mm Hg"}, {"measurement": "PSF during LH perfusion at 40 nl·min^−1", "setting": "[5]; WKY", "value": "29.8 ± 0.5", "unit": "mm Hg"}, {"measurement": "Average blunting of TGF responses", "setting": "[5]; WKY, L-arginine added to orthograde LH perfusate", "value": 18, "unit": "%"}]}, {"smiles": "NC[C@H](O)c1ccc(O)c(O)c1", "note": "[Norepinephrine, norepinephrine]", "values": [{"measurement": "Increase in MAP", "setting": "[4]; SHR, norepinephrine 31 nmol·kg^−1·min^−1", "value": 15, "unit": "%"}, {"measurement": "MAP after norepinephrine infusion", "setting": "[4]; SHR, norepinephrine 31 nmol·kg^−1·min^−1, from 164±4", "value": "188±7", "unit": "mm Hg"}, {"measurement": "Change in MAP at 50 min (time control)", "setting": "[4]; norepinephrine infusion", "value": "2.0±0.0", "unit": "%"}]}]}
